Experiments:
[1] = tested on: Brassica napus hypocotyl explants (AG019, altered oil profiles); assay: Brassica napus transformation, NAA in callusing and recovery media; type: cell-based; conditions: NAA added to callusing and recovery media; Brassica napus with altered oil profiles
Procedure: After co-cultivation, the cells are […] to callusing and recovery media for 7 days. Explants are then placed on selection medium containing macro and micro nutrients, vitamins and growth regulators which induce shoot formation. The selection medium also contains a bacteriocide, for example carbenicillin. Preferably, it also contains a selection agent. The cells are grown on the selection medium until shoots (putative transformants) develop. […] To enhance regeneration, any shoots which develop are transferred on a regular basis to fresh selection media. Plantlets are placed on a shoot elongation media and finally a rooting media.
A single colony of Agrobacterium containing the plant transformation vector construct is transferred to AB minimal medium (Watson et al., 1975) for 48 hr at 28° C., which gives at approx. density of 6×10^8 cfu/mL. Hypocotyls are harvested from the germinated seeds and transferred to the Pre-Culture medium (MMOM, 3% (w/v) sucrose, 5.0 mg/L BAP, 0.7% (w/v) agar, and NAA 0.1 mg/L, pH 5.8) and incubated for 3 days under the TC conditions described above. Hypocotyl explants are then transferred from the Pre-Culture medium to the AB minimal medium containing the Agrobacterium strain of interest and incubated for at least 2 min. […]

Non-transformed plants [2] = assay: NAM spray of non-transformed tobacco plants; type: in vivo; conditions: 200 ug/mL NAM with 0.1% Tween 20, sprayed to runoff
Source text: Transformed tobacco plants containing the pJH 121 construct described above are recovered and tested using standard analysis to determine the presence of the inserted vector. […] Plants were sprayed to runoff using a pressurized sprayer. […] Non-transformed plants are unaffected by the treatment.

[3] = tested on: Transformed Brassica napus plants containing the construct pJH 121; assay: NAM spray of transformed Brassica napus plants containing pJH121; type: in vivo; conditions: 200 ug/mL NAM with 0.1% Tween 20, sprayed to runoff at three-four leaf stage; 25 days after spraying
Source text: (§1) Transformed Brassica napus plants containing the construct pJH 121 described above are recovered and tested using standard analysis to determine the presence of the inserted vector. […] Plants were sprayed to runoff using a pressurized sprayer.

non-transgenic varieties = assay: NAM spray of non-transgenic Brassica napus varieties; type: in vivo; conditions: 200 ug/mL NAM with 0.1% Tween 20, sprayed to runoff; 25 days after spraying
Source text: as §1

[4] = tested on: Transformed Brassica napus plants containing the construct pJH 125 (35S oncogene 2); assay: NAM spray of transformed Brassica napus plants containing pJH125; type: in vivo; conditions: 200 ug/mL NAM with 0.1% Tween 20, sprayed to runoff
Source text: (§2) Transformed Brassica napus plants containing the construct pJH 125 (35S oncogene 2) described above are recovered and tested using standard analysis to determine the presence of the inserted vector. […] Plants were sprayed to runoff using a pressurized sprayer. […] Non-transformed plants are unaffected by the treatment.

Non-transformed plants [5] = assay: NAM spray of non-transformed Brassica napus plants; type: in vivo; conditions: 200 ug/mL NAM with 0.1% Tween 20, sprayed to runoff
Source text: as §2

[6] = tested on: plants from JH 2984 and JH 2973 transformation events (pJH 125); assay: NAM as scorable marker agent in segregating populations JH 2984 and JH 2973; type: in vivo, Brassica napus; conditions: NAM 1 mg/mL at the 2-3 leaf stage; 24 hours after application
Source text: In this example, 20 plants from JH 2984 and JH 2973 transformation events were planted. These transgenic varieties were segregating 3:1 for the inserted plant transformation vector pJH 125. […] These plants were subjected to PCR analysis for the presence of the transformation vector.

[7] = tested on: Transgenic seedlings from JH2973 and JH2984 (pJH 125); assay: In vitro seed germination in the presence of NAM and NPA, transgenic seedlings; type: in vivo, Brassica napus
Source text: (§3) Oncogene 2 can be used as a selectable marker in seed germination and embryo rescue in vitro assays, allowing for an even earlier determination of the presence of the transformation vector in segregating populations. […] The in vitro assay reduces the time and physical space (e.g. number of plants in growth chambers or under cultivation) required to identify homozygous transgenic lines, and the embryo rescue method allows selection and recovery of transformed seedlings which reduces generation to generation cycle time a breeding program.
(§4) Non-transformed segregants grew normally. […] The presence of the transformation vector in these plants was confirmed as above.

[8] = tested on: Non-transformed segregants; assay: In vitro seed germination in the presence of NAM and NPA, non-transformed segregants; type: in vivo, Brassica napus; conditions: germinated in vitro in the presence of NAM and the auxin transport inhibitor NPA
Source text: as §3, §4

[9] = tested on: transgenic plants expressing the oncogene 2; assay: Spray screen for transgenic plants expressing the oncogene 2; type: in vivo
Source text: A simple procedure is provided to screen for transgenic plants expressing the oncogene 2. […] Plants which have been affected are selected.

[10] = tested on: Plants without the oncogene 2; assay: Spray screen, plants without the oncogene 2; type: in vivo; conditions: sprayed with formulated mixture
Procedure: A simple procedure is provided to screen for transgenic plants expressing the oncogene 2. Plant populations are sprayed with the formulated mixture of napthalene acetamide. […] Plants without the oncogene 2 are unaffected. Plants which have been affected are selected. These recover within 72 hours and continue to grow and set seed. This phenotypic response is transmitted to subsequent generations.

O=C(O)Cc1cccc2ccccc12 [NAA, napthalene acetic acid]
formation of transgenic shoots [1]: greatly increases the formation of transgenic shoots

NC(=O)Cc1cccc2ccccc12 [NAM, napthalene acetamide]
effect of treatment on non-transformed plants (Non-transformed plants [2]): unaffected
growth of transgenic plants [3]: remained stunted in growth
growth of non-transgenic varieties (non-transgenic varieties): grew normally and flowered
visual phenotype of transformed plants ([4]; 2 days after spraying): leaves are drooping and the leaf margins curling
visual phenotype of transformed plants ([4]; within 5 days): leaves are twisted and the plant shows typical auxin toxicity
effect of treatment on non-transformed plants (Non-transformed plants [5]): unaffected
visual phenotype of putative transgenics (confirmed by PCR) [6]: twisted leaves
recovery of putative transgenic seedlings ([7]; after transfer to non-selective media): recovered and grew normally
phenotype of transgenic seedlings ([7]; germinated in vitro in the presence of NAM and the auxin transport inhibitor NPA): stunted seedlings, small cotyledons, stunted and swollen roots and callus at the root/shoot junction
growth of non-transformed segregants [8]: grew normally
visual phenotype of transgenic plants ([9]; sprayed with formulated mixture, within 24 hours): epinasty and obvious visual phenotypic changes
time to recovery of affected plants ([9]; sub-lethal spray, plants continue to grow and set seed): ≤ 72 h
effect on plants without the oncogene 2 [10]: unaffected

— patent publication US6753459B2, “Transgenic plants and methods for production thereof” (National Research Council of Canada, priority 1998, dated 2004)
